Laboratory results published in PMC7576608, “Mechanisms of telomerase inhibition by oxidized and therapeutic dNTPs” (Nature Communications, 2020).
Where “and” joins values, the source holds several entries; their conditions need not be identical. Identical values can stand only once. Like-named read-outs stand apart in the source and are kept apart here.

Molecular target: telomerase (Homo sapiens, UniProt O14746)
Experiment: Telomerase repeat processivity IC50: modified dNTP titrated into reactions with all four natural dNTPs
Type: biochemical
Parameters: made in house; anti-FLAG immunopurification, eluted with 3xFLAG peptide
Details: for LogIC50 (processivity): concentration in μM
In short: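 Immunopurified telomerase was run with cellular-relevant levels of all four natural dNTPs plus modified dNTP at 0 to 10,000 μM, for 1 h at 37 °C, and products were resolved on a denaturing gel by phosphorimaging. Repeat processivity R1/2 = −ln(2)/slope of ln(100−%LB) vs repeat number. IC50 is the concentration halving repeat processivity.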

[1] = 6-thio-dGTP, per replicate N1-N3
[2] = cellular relevant natural dNTPs, modified dNTP titrated 0 to 10,000 μM, based on repeat processivity, mean ± SD, read-out: Telomerase processivity IC50
[3] = log of processivity IC50 (concentration in μM), Supplementary Fig 8b, read-out: Log IC50 (converted)
[4] = dose-response fit of processivity R 1/2, individual replicates
[5] = dose-response fit of processivity R 1/2 vs log(concentration), individual replicates

Sequence of telomerase (O14746 whole entry): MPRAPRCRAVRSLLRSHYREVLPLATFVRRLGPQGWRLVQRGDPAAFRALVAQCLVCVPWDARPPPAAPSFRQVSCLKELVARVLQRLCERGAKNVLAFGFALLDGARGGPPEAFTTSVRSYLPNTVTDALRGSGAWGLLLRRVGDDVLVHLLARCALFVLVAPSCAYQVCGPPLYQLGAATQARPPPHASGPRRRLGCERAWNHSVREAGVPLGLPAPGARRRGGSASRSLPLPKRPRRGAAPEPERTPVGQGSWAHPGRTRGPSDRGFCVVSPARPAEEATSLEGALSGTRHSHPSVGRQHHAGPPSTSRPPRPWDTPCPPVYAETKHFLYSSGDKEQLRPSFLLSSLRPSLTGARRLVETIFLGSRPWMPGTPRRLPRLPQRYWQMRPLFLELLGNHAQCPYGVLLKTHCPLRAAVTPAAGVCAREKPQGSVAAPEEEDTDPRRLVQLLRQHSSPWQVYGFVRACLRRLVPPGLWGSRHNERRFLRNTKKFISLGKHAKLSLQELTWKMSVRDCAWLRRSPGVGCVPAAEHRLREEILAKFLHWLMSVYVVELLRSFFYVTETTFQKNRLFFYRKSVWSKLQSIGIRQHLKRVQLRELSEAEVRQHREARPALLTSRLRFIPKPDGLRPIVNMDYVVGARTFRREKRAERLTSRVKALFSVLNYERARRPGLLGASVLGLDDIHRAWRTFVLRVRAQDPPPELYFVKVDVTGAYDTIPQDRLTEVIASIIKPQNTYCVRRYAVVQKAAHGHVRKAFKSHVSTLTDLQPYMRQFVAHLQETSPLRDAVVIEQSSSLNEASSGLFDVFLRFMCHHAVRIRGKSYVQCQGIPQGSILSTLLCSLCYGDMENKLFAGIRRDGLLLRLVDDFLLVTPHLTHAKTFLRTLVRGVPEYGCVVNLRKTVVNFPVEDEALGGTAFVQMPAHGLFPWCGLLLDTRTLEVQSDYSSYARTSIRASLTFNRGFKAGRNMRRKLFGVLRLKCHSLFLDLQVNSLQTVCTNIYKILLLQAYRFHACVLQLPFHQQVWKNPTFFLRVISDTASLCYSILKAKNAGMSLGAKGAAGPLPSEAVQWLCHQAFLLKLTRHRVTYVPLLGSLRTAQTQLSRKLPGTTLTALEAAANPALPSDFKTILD

Nc1nc2c(ncn2C2CC(O)C(COP(=O)(O)OP(=O)(O)OP(=O)(O)O)O2)c(=S)[nH]1 (centres unmarked) [6-thio-dGTP]
Processivity R 1/2 (6-thio-dGTP 0.625μM): 4.12 and 2.32 and 3.78 | YIntercept (line fit of ln(100-%LB) vs # telomere repeats) (6-thio-dGTP 0.625μM): 2.91 and 3.25 and 3.64 | ln(100-%LB) (6-thio-dGTP 0.625μM, telomere repeat 1): 3.70 and 3.69 and 3.62 | ln(100-%LB) (6-thio-dGTP 0.625μM, telomere repeat 2): 3.11 and 3.16 and 3.05 | ln(100-%LB) (6-thio-dGTP 0.625μM, telomere repeat 3): 2.56 and 2.68 and 2.52 | ln(100-%LB) (6-thio-dGTP 0.625μM, telomere repeat 4): 2.29 and 2.48 and 2.27 | ln(100-%LB) (6-thio-dGTP 0.625μM, telomere repeat 5): 2.03 and 2.29 and 2.05 | ln(100-%LB) (6-thio-dGTP 0.625μM, telomere repeat 6): 1.75 and 2.06 and 1.79 | ln(100-%LB) (6-thio-dGTP 0.625μM, telomere repeat 7): 1.47 and 1.85 and 1.49 | ln(100-%LB) (6-thio-dGTP 0.625μM, telomere repeat 8): 1.23 and 1.67 and 1.26 | ln(100-%LB) (6-thio-dGTP 0.625μM, telomere repeat 9): 0.98 and 1.45 and 0.96 | ln(100-%LB) (6-thio-dGTP 0.625μM, telomere repeat 10): 0.71 and 1.24 and 0.68 | YIntercept (line fit of ln(100-%LB) vs # telomere repeats) (6-thio-dGTP 10μM): 5.12 and 3.95 and 4.44 | ln(100-%LB) (6-thio-dGTP 10μM, telomere repeat 1): 3.39 and 3.57 and 3.48 | ln(100-%LB) (6-thio-dGTP 10μM, telomere repeat 2): 1.78 and 2.70 and 1.99 | ln(100-%LB) (6-thio-dGTP 10μM, telomere repeat 6): 0.15 | ln(100-%LB) (6-thio-dGTP 10μM, telomere repeat 7): -0.27 | ln(100-%LB) (6-thio-dGTP 10μM, telomere repeat 8): -0.68 | ln(100-%LB) (6-thio-dGTP 10μM, telomere repeat 9): -1.63 | IC50 (6-thio-dGTP, mean of N1-N3, SD 1.45, read-out: Mean IC50 (processivity R 1/2)): 5.48 µM | Bottom (best-fit, processivity R 1/2 vs log concentration) [1]: 0.3229 and 0.05037 and -0.0895 | HillSlope (processivity) [1]: -2.993 and -0.7699 and -0.9281 | Span (best-fit, processivity R 1/2 vs log concentration) [1]: 3.504 and 3.529 and 1.482 | Top (best-fit, processivity R 1/2 vs log concentration) [1]: 3.827 and 3.579 and 1.393 | LogIC50 (processivity) [1]: 0.8984 and 0.6519 and 0.682 | IC50 (6-thio-dGTP, per replicate N1-N3, read-out: IC50 (processivity R 1/2)): 4.49 µM and 4.81 µM | IC50 [2]: 5 ± 2 µM | IC50 [3]: 5.01 µM

Cc1cn([C@H]2C[C@H](N=[N+]=[N-])[C@@H](CO[P@](=O)(O)O[P@](=O)(O)OP(=O)(O)O)O2)c(=O)[nH]c1=O [AZT-TP]
IC50 [2]: 402 ± 169 µM | Best-fit values HillSlope [4]: -0.83 and -0.51 | Best-fit values Span [4]: 2.37 and 4.19 | Best-fit values LogIC50 (dose-response fit of processivity R 1/2, log of concentration in μM, individual replicates): 2.72 and 2.45 | Best-fit values Bottom [5]: -0.33 and -0.59 | Best-fit values Top [5]: 2.04 and 3.59 | IC50 [3]: 501 µM | Processivity R 1/2 (modified dNTP concentration 31.25 μM, individual replicates n1-n3): 1.70 and 1.35 | Processivity R 1/2 (modified dNTP concentration 500 μM, individual replicates): 0.80 and 0.64 | Processivity R 1/2 (modified dNTP concentration 1000 μM, individual replicates): 0.57 and 0.61 | Processivity R 1/2 (modified dNTP concentration 2000 μM, individual replicates): 0.00 and 0.49 | Processivity R 1/2 (modified dNTP concentration 4000 μM, individual replicates): 0.00 | IC50 (repeat processivity R 1/2, individual replicates N1-N3, read-out: Best-fit values IC50): 521 µM and 282 µM | IC50 (repeat processivity R 1/2, mean of replicates, read-out: Mean IC50): 402 µM

Nc1nc(O)nc2c1ncn2C1CC(O)C(COP(=O)(O)OP(=O)(O)OP(=O)(O)O)O1 (centres unmarked) [2-OH-dATP]
YIntercept (line fit of ln(100-%LB) vs # telomere repeats) (2-OH-dATP 31μM): 3.86 and 4.26 and 3.87 | ln(100-%LB) (2-OH-dATP 31μM, telomere repeat 1): 3.80 and 4.29 and 3.78 | ln(100-%LB) (2-OH-dATP 31μM, telomere repeat 2): 3.30 and 3.65 and 3.08 | ln(100-%LB) (2-OH-dATP 31μM, telomere repeat 3): 2.75 and 3.04 and 2.41 | ln(100-%LB) (2-OH-dATP 31μM, telomere repeat 4): 2.47 and 2.74 and 2.04 | ln(100-%LB) (2-OH-dATP 31μM, telomere repeat 5): 2.09 and 2.42 and 1.67 | ln(100-%LB) (2-OH-dATP 31μM, telomere repeat 6): 1.74 and 2.03 and 1.15 | Processivity R 1/2 (2-OH-dATP 31.25 μM): 2.08 and 3.03 and 1.6 | Processivity R 1/2 (2-OH-dATP 62.5 μM): 1.82 and 1.19 and 1.25 | Processivity R 1/2 (2-OH-dATP 250μM): 0.71 and 1.05 and 0.94 | YIntercept (line fit of ln(100-%LB) vs # telomere repeats) (2-OH-dATP 250μM): 4.34 and 4.78 and 4.14 | ln(100-%LB) (2-OH-dATP 250μM, telomere repeat 1): 3.46 and 4.32 and 3.82 | ln(100-%LB) (2-OH-dATP 250μM, telomere repeat 2): 2.39 and 3.46 and 2.75 | Processivity R 1/2 (2-OH-dATP 500μM): 0.82 and 0.52 and 1.02 | YIntercept (line fit of ln(100-%LB) vs # telomere repeats) (2-OH-dATP 500μM): 3.92 and 4.75 and 4.04 | ln(100-%LB) (2-OH-dATP 500μM, telomere repeat 1): 3.41 and 4.41 and 3.82 | ln(100-%LB) (2-OH-dATP 500μM, telomere repeat 2): 2.30 and 3.46 and 2.66 | YIntercept (line fit of ln(100-%LB) vs # telomere repeats) (2-OH-dATP 750μM): 4.21 and 5.17 and 4.34 | ln(100-%LB) (2-OH-dATP 750μM, telomere repeat 1): 2.99 and 4.03 and 3.90 | YIntercept (line fit of ln(100-%LB) vs # telomere repeats) (2-OH-dATP 1000μM): 4.31 and 5.20 and 4.71 | ln(100-%LB) (2-OH-dATP 1000μM, telomere repeat 1): 2.98 and 4.07 and 3.49 | ln(100-%LB) (2-OH-dATP 1500μM, telomere repeat 2): 0.48 | Processivity R 1/2 (2-OH-dATP 2000 μM): 0 | IC50 (2-OH-dATP, mean of N1-N3, SD 66.28, read-out: Mean IC50 (processivity R 1/2)): 103 µM | Bottom (best-fit, processivity R 1/2 vs log concentration) (2-OH-dATP, per replicate N1-N3): 0.09 and -0.00587 and 0.62 | HillSlope (processivity) (2-OH-dATP, per replicate N1-N3): -1.28 and -0.83 and -0.032 | Span (best-fit, processivity R 1/2 vs log concentration) (2-OH-dATP, per replicate N1-N3): 2.29 and 2.84 and 1.84 | Top (best-fit, processivity R 1/2 vs log concentration) (2-OH-dATP, per replicate N1-N3): 2.38 and 2.84 and 2.47 | LogIC50 (processivity) (2-OH-dATP, per replicate N1-N3): 2.24 and 1.99 and 1.60 | IC50 (2-OH-dATP, per replicate N1-N3, read-out: IC50 (processivity R 1/2)): 172 µM and 97 µM and 39.4 µM | IC50 [2]: 103 ± 66 µM | IC50 [3]: 126 µM
